IC50 data for 27 molecules are collected here from patent EP2790511B1 (Merck Sharp & Dohme Corp., priority 2011, dated 2013).

Where two headings read alike, the source gives them in different places.

In this assay the target is T1, hROMK (hKir1.1) (Homo sapiens, UniProt P48048).
T1 construct: expressed in transfected cells
T1 sequence (P48048 1-391): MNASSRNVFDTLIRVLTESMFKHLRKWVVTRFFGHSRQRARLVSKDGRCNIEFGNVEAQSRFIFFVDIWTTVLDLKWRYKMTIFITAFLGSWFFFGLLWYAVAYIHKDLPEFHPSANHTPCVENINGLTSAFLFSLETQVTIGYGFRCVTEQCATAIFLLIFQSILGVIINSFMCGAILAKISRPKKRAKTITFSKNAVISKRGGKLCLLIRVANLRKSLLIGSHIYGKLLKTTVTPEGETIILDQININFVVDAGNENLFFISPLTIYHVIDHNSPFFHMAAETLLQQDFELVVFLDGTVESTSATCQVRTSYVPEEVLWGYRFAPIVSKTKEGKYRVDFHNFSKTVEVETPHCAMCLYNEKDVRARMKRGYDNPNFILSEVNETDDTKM
As to the kind of experiment: Thallium Flux Assay. In kind it is cell-based. The essentials:
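HEK293 cells stably expressing hROMK, loaded with FluxOR dye 90 min at ambient temperature, then compound 30 min with 0.3 mM ouabain in probenecid buffer pH 7.4.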

Setting [1] is: HEK293 cells stably expressing hROMK (hKir1.1), FLIPR-Tetra, read-out: Thallium Flux IC50.

Broadly, the IC50 is the point on the concentration scale where inhibition reaches its midpoint. `O=C(Cc1cnc(-n2cnnn2)nc1)N1CCN2C[C@@H](c3ccc4nonc4c3)OC[C@@H]2C1` [Example 175, (3R,9aS)-3-(2,1,3-benzoxadiazol-5-yl)-8-{[2-(1H-tetrazol-1-vl)pvrimidin-5-yl]acetyl}octahydropyrazino[2,1-c][1,4]oxazine]: the IC50 under setting [1] is 0.53 µM.
Still for that read-out and setting: the value for `COc1cc([C@H]2CN3CCN(C(=O)Cc4ccc(-n5cnnn5)nc4)C[C@@H]3CO2)cc(F)c1C#N` [Example 112, 2-fluoro-6-methoxy-4-[(3S,9aR)-8-{[6-(1H-tetrazol-1-vl)pvridin-3-yl]acetyl}octahydropyrazino[2,1-c][1,4]oxazin-3-yl]benzonitrile] was 0.22 µM.
Take `Cc1cc(CC(=O)N2CCN3C[C@@H](c4ccc(F)c(C#N)c4C)OC[C@H]3C2)ncc1-n1cnnn1` [Example 129, 6-fluoro-2-methyl-3-[(3R,9aR)-8-{[4-methyl-5-(1H-tetrazol-1-yl)pyridin-2-yl]acetyl}octahydropyrazino[2,1-c][1,4]oxazin-3-yl]benzonitrile]: the IC50 under setting [1] amounted to 0.25 µM.
The same measure, in the same setting: to `Cc1nc(CC(=O)N2CCN3C[C@@H](c4ccc(F)c(C#N)c4C)OC[C@@H]3C2)ccc1-n1cnnn1` [Example 128, 6-fluoro-2-methyl-3-[(3R,9aS)-8-{[6-methyl-5-(1H-tetrazol-1-vl)pvridin-2-yl]acetyl}octahydropyrazino[2,1-c][1,4]oxazin-3-yl]benzonitrile] belongs 0.18 µM.
As to `O=C1OCCc2cc([C@@H]3CN4CCN(C(=O)Cc5cnc(-n6cnnn6)cn5)C[C@H]4CO3)ccc21` [Example 80, 6-[(3R,9aS)-8-{[5-(1H-tetrazol-1-yl)pyrazin-2-yl]acetyl}octahydropyrazino[2,1-c][1,4]oxazin-3-yl]-3,4-dihydro-1H-isochromen-1-one], the IC50 under setting [1] came to 0.5 µM.
Molecule `Cc1c([C@@H]2CN3CCN(C(=O)Cc4ccc(-n5cnnn5)nc4)C[C@H]3CO2)ccc2c1COC2=O` [Example 22, 4-methyl-5-[(3R,9a,S)-8-{[6-(1H-tetrazol-1-yl)pyridin-3-yl]acetyl}octahydropyrazino[2,1-c][1,4]oxazin-3-y]-2-benzofuran-1(3H)-one] registered an IC50 (Thallium Flux IC50) of 0.16 µM.
On to `Cc1c([C@H]2CN3CCN(C(=O)Cc4cnc(-n5cnnn5)nc4)C[C@H]3CCO2)ccc(F)c1C#N` (single isomer, unassigned) [Example 172], for which the IC50 (Thallium Flux IC50) amounted to 0.22 µM.
Consider `N#Cc1c(F)ccc([C@@H]2CN3CCN(C(=O)Cc4ccc(-n5cnnn5)nc4)C[C@@H]3CO2)c1F` [Example 88, 2,6-difluoro-3-[(3R,9aR)-8-{[6-(1H-tetrazol-1-yl)pyridin-3-yl]acetyl}octahydropyrazino[2,1-c][1,4]oxazin-3-yl]benzonitrile], for which the IC50 (Thallium Flux IC50) was determined as 0.09 µM.
Still for that read-out and setting: to `Cc1c([C@H]2CN3CCN(C(=O)Cc4ccc(-n5cnnn5)nc4)C[C@H]3CN2)ccc(F)c1C#N` [Example 192, 6-fluoro-2-methyl-3-[(3S,9aR)-8-{[6-(1H-tetrazol-1-yl)pyridin-3-yl]acetyl}octahydro-2H-pyrazino[1,2-a]pyrazin-3-yl]benzonitrile] belongs 0.07 µM.
For the molecule `N#Cc1c(F)ccc([C@@H]2CN3CCN(C(=O)Cc4ccc(-n5cnnn5)cn4)C[C@H]3CO2)c1Cl` [Example 53], under setting [1], the IC50 turned out to be 0.06 µM.
Molecule `Cc1c([C@@H]2CN3CCN(C(=O)Cc4cnc(-n5cnnn5)nc4)C[C@H]3CN2)ccc(F)c1C#N` [Example 193, 6-fluoro-2-methyl-3-[(3R,9aR)-8-{[2-(1H-tetrazol-1-yl)pyrimidin-5-yl]acetyl}octahydro-2H-pyrazino[1,2-a]pyrazin-3-yl]benzonitrile] gave an IC50 (Thallium Flux IC50) of 0.1 µM.
In turn, `Cc1c(C#N)cccc1[C@@H]1CN2CCN(C(=O)Cc3ccc(-n4cnnn4)nc3)C[C@@H]2CO1` [Example 117, 2-methyl-3-[(3R,9aR)-8-{[6-(1H-tetrazol-1-yl)pyridin-3-yl]acetyl}octahydropyrazino[2,1-c] [1,4]oxazin-3-yl]benzonitrile] returned an IC50 (Thallium Flux IC50) of 0.22 µM.
On to `Cc1c([C@H]2CN3CCN(C(=O)Cc4cnc(-n5cnnn5)nc4)C[C@H]3CN2)ccc(F)c1C#N` [Example 189, 3-((3S,9aR)-8-(2-(2-(1H-tetrazol-1-yl)pyrimidin-5-yl)acetyl)octahydro-1H-pyrazino[1,2-a]pyrazin-3-yl)-6-fluoro-2-methylbenzonitrile], for which the IC50 under setting [1] was 0.12 µM.
Still for that read-out and setting: to `N#Cc1cc([C@@H]2CN3CCN(C(=O)Cc4cnc(-n5cnnn5)nc4)C[C@@H]3CO2)ccc1F` [Example 141, 2-fluoro-5-[(3R,9aR)-8-{[2-(1H-tetrazol-1-yl)pyrimidin-5-yl]acetyl}octahydropyrazino[2,1-c][1,4]oxazin-3-yl]benzonitrile] belongs 0.3 µM.
With `Cc1cc(-n2cnnn2)ncc1CC(=O)N1CCN2C[C@H](c3ccc4c(c3C)COC4=O)OC[C@@H]2C1` [Example 42, 4-methyl-5-[(3S,9aS)-8-{[4-methyl-6-(1H-tetrazol-1-yl)pyridin-3-yl]acety}octahydropyrazino[2,1-c][1,4]oxazin-3-yl]-2-benzofuran-1(3H)-one], the IC50 (Thallium Flux IC50) was 0.21 µM.
The same measure, in the same setting: to `N#Cc1cc([C@@H]2CN3CCN(C(=O)Cc4ccc(-n5cnnn5)nc4)C[C@H]3CO2)c(F)cc1F` [Example 81, 2,4-difluoro-5-[(3R,9aS)-8-{[6-(1H-tetrazol-1-yl)pyridin-3-yl]acetyl}octahydropyrazino[2,1-c][1,4]oxazin-3-yl]benzonitrile] belongs 0.16 µM.
For the molecule `Cc1c([C@@H]2CN3CCN(C(=O)Cc4ccc(-n5cnnn5)nc4)C[C@H]3CO2)ccc2nonc12` [Example 177, (3R,9aS)-3-(4-methyl-2,1,3-benzoxadiazol-5-yl)-8-{[6-(1H-tetrazol-1-yl)pyridin-3-yl]acetyl}octahydropyrazino[2,1-c][1,4]oxazine], the half-inhibitory concentration (IC50) under setting [1] stood at 0.25 µM.
For the molecule “2,6-difluoro-3-[3R,9aS)-8-{[2-methyl-6-(1H-tetrazol-1-vl)pvridin-3-yl]acetyl}octahydropyrazino[2,1-c][1,4]oxazin-3-yl]benzonitrile [Example 89]”, the IC50 (read-out: Thallium Flux IC50) was determined as 0.07 µM.
Turning to `Cc1c([C@H]2CN3CCN(C(=O)Cc4ccc(-n5cnnn5)nc4)C[C@H]3CO2)ccc(Cl)c1C#N` [Example 64, 6-chloro-2-methyl-3-[(3S,9aS)-8-{[6-(1H-tetrazol-1-yl)pyridin-3-yl]acetyl}octahydropyrazino[2,1-c][1,4]oxazin-3-yl]benzonitrile], the IC50 under setting [1] amounted to 0.68 µM.
Same read-out and setting: the value for `N#Cc1c(F)cc([C@@H]2CN3CCN(C(=O)Cc4ccc(-n5cnnn5)nc4)C[C@H]3CO2)cc1F` [Example 110, 2,6-difluoro-4-[(3R,9aS)-8-{[6-(1H-tetrazol-1-yl)pyridin-3-yl]acetyl}octahydropyrazino[2,1-c][1,4]oxazin-3-yl]benzonitrile] was 0.37 µM; that for `Cc1c([C@@H]2CN3CCN(C(=O)Cc4cnc(-n5cnnn5)nc4C(F)(F)F)C[C@H]3CO2)ccc(F)c1C#N` [Example 159, 6-fluoro-2-methyl-3-[(3R,9aS)-8-{[2-(1H-tetrazol-1-yl)-4-(trifluoromethyl)pyrimidin-5-yl]acetyl}octahydropyrazino[2,1-c][1,4]oxazin-3-yl]benzonitrile] was 0.26 µM.
For the molecule `Cc1c([C@@H]2CN3CCN(C(=O)Cc4ccc(-n5cnnn5)nc4)C[C@@H]3CO2)ccc2c1COC2=O` [Example 23], inhibition (Thallium Flux IC50) was half-maximal at 0.07 µM (IC50).
For the molecule `Cc1c([C@H]2CN3CCN(C(=O)Cc4ncc(-n5cnnn5)cc4Cl)C[C@H]3CO2)ccc(F)c1C#N` [Example 153, 3-[(3S,9aS)-8-{[3-chloro-5-(1H-tetrazol-1-yl)pyridin-2-yl]acetyl}octahydropyrazino[2,1-c][1,4]oxazin-3-yl]-6-fluoro-2-methylbenzonitrile], for the setting “Thallium Flux IC50”, 0.17 µM corresponded to half-maximal inhibition (IC50).
Regarding `COc1c([C@H]2CN3CCN(C(=O)Cc4ccc(-n5cnnn5)cn4)C[C@H]3CO2)ccc(F)c1C#N` [Example 63, 6-fluoro-2-methoxy-3-[(3S,9aS)-8-{[5-(1H-tetrazol-1-vl)pvridin-2-yl]acetyl}octahydropyrazino[2,1-c][1,4]oxazin-3-yl]benzonitrile], under setting [1], the IC50 is 0.18 µM.
For `Cc1cc2c(cc1[C@H]1CN3CCN(C(=O)Cc4ccc(-n5cnnn5)nc4)C[C@H]3CO1)COC2=O` [Example 73, 6-methyl-5-[(3S,9aS)-8-{[6-(1H-tetrazol-1-yl)pyridin-3-yl]acetyl}octahydropyrazino[2,1-c][1,4]oxazin-3-yl]-2-benzofuran-1(3H)-one], the IC50 under setting [1] is 0.23 µM.
Under “Thallium Flux IC50”, `C[C@H]1Cc2cc([C@@H]3CN4CCN(C(=O)Cc5cnc(-n6cnnn6)nc5)C[C@H]4CO3)ccc2C(=O)O1` [Example 20, (3S)-3-methyl-6-[(3R,9aS)-8-{[2-(1H-tetrazol-1-yl)pyrimidin-5-yl]acetyl}octahydropyrazino[2,1-c][1,4]oxazin-3-yl]-3,4-dihydro-1H-isochromen-1-one] showed an IC50 of 0.17 µM.
Take `Cc1c(C#N)cncc1[C@@H]1CN2CCN(C(=O)Cc3ccc(-n4cnnn4)nc3)C[C@H]2CO1` [Example 74, 4-methyl-5-[(3R,9aS)-8-{[6-(1H-tetrazol-1-yl)pyridin-3-yl]acetyl}octahydropyrazino[2,1-c][1,4]oxazin-3-yl]pyridine-3-carbonitrile]: the half-inhibitory concentration (IC50) under setting [1] was 0.39 µM.
